Test results: patent US20060263802A1 (priority 2003, published 2006)

Assays:
Type in all cases: binding
[1] = system: human monoclonal antibody CRJB
[2] = system: human monoclonal antibody CR57
[3] = system: human monoclonal antibody CRJA
[4] = system: human monoclonal antibody CRJB; remark: listed apart in the source
[5] = system: human monoclonal antibody CR57; remark: listed apart in the source
[6] = system: human monoclonal antibody CRJA; remark: listed apart in the source

Sequence | Binding of CRJB to linear peptide (PEPSCAN-ELISA signal) [1] | Binding of CR57 to linear peptide (PEPSCAN-ELISA signal) [2] | Binding of CRJA to linear peptide (PEPSCAN-ELISA signal) [3] | Binding of CRJB (10 μg/ml) to looped/cyclic peptide (PEPSCAN-ELISA) [4] | Binding of CR57 (10 μg/ml) to looped/cyclic peptide (PEPSCAN-ELISA) [5] | Binding of CRJA (10 μg/ml) to looped/cyclic peptide (PEPSCAN-ELISA) [6] | Binding of CRJB (10 μg/ml) to looped/cyclic peptide (PEPSCAN-ELISA signal) [4] | Binding of CR57 (10 μg/ml) to looped/cyclic peptide (PEPSCAN-ELISA signal) [5] | Binding of CRJA (10 μg/ml) to looped/cyclic peptide (PEPSCAN-ELISA signal) [6] | Binding of human monoclonal antibody CRJB to linear peptide (PEPSCAN-ELISA signal) [1] | Binding of human monoclonal antibody CR57 to linear peptide (PEPSCAN-ELISA signal) [2] | Binding of human monoclonal antibody CRJA to linear peptide (PEPSCAN-ELISA signal) [3] | Binding of CRJB to looped/cyclic peptide (PEPSCAN-ELISA signal) [4] | Binding of CR57 to looped/cyclic peptide (PEPSCAN-ELISA signal) [5] | Binding of CRJA to looped/cyclic peptide (PEPSCAN-ELISA signal) [6] | binding of antibody CR57 to linear peptide (PEPSCAN OD) [2] | strength of binding of CR57 (OD value compared with the other peptides / twice the average value) [2]
SKGCLRVGGRCHPHV | 121 | 72 | 87 | 87 | 79 | 71 | – | – | – | – | – | – | – | – | – | – | –
VEDEGCTNLSGFSYM | 103 | 74 | 82 | – | – | – | 78 | 83 | 86 | – | – | – | – | – | – | – | –
VEELVRKREECLDAL | 111 | 58 | 84 | 27 | 55 | 69 | – | – | – | – | – | – | – | – | – | – | –
FKRKHFRPTPDACRA | 92 | 64 | 86 | – | – | – | 72 | 148 | 86 | – | – | – | – | – | – | – | –
TILDKLGPWSPIDIH | 96 | 76 | 84 | – | – | – | 60 | 85 | 86 | – | – | – | – | – | – | – | –
FNGIILGPDGNVLIP | 139 | 61 | 99 | 88 | 94 | 106 | – | – | – | – | – | – | – | – | – | – | –
LVHPLADPSTVFKDG | 174 | 164 | 106 | 116 | 133 | 108 | – | – | – | – | – | – | – | – | – | – | –
PSKGCLRVGGRCHPH | 138 | 69 | 78 | 99 | 92 | 71 | – | – | – | – | – | – | – | – | – | – | –
IPEMQSSLLQQHMEL | 128 | 89 | 60 | 83 | 66 | 54 | – | – | – | – | – | – | – | – | – | – | –
QSSLLQQHMELLESS | 114 | 82 | 98 | 85 | 97 | 99 | – | – | – | – | – | – | – | – | – | – | –
ELKVGYILAIKMNGF | 132 | 87 | 84 | – | – | – | 83 | 84 | 93 | – | – | – | – | – | – | – | –
PDACRAAYNWKMAGD | 124 | 61 | 93 | – | – | – | 76 | 97 | 96 | – | – | – | – | – | – | – | –
DPSTVFKDGDEAEDF | – | – | – | – | – | – | – | – | – | 147 | 98 | 132 | 110 | 134 | 110 | – | –
TTFKRKHFRPTPDAC | 99 | 74 | 111 | – | – | – | 78 | 86 | 89 | – | – | – | – | – | – | – | –
WKMAGDPRYEESLHN | 101 | 69 | 86 | – | – | – | 77 | 96 | 90 | – | – | – | – | – | – | – | –
QHMELLESSVIPLVH | 146 | 98 | 87 | 97 | 132 | 111 | – | – | – | – | – | – | – | – | – | – | –
SIMTTKSVSFRRLSH | 130 | 54 | 92 | 25 | 69 | 72 | – | – | – | – | – | – | – | – | – | – | –
KLCGVLGLRLMDGTW | 132 | 3152 | 96 | 68 | 120 | 82 | – | – | – | – | – | – | – | – | – | bound | most prominent
DLDPYDRSLHSRVFP | 152 | 111 | 107 | – | – | – | 68 | 90 | 92 | – | – | – | – | – | – | – | –
YMELKVGYILAIKMN | 114 | 78 | 96 | – | – | – | 83 | 93 | 76 | – | – | – | – | – | – | – | –
RVFPSGKCSGVAVSS | 110 | 69 | 58 | – | – | – | 89 | 75 | 43 | – | – | – | – | – | – | – | –
RPTPDACRAAYNWKM | 101 | 77 | 123 | – | – | – | 51 | 76 | 96 | – | – | – | – | – | – | – | –
